Columns and labels:
[1] = target: vasopressin V1 receptor (rat liver plasma membranes) (Rattus norvegicus, UniProt P30560); assay: Binding Assay to Rat Hepatic V1 Receptors; conditions: rat hepatic V1
Description: Rat liver plasma membranes expressing the vasopressin V1 receptor subtypes are isolated by sucrose density gradient according to the method described by Lesko et al., (1973). These membranes are quickly suspended in 50.0 mM Tris.HCl buffer, pH 7.4, containing 0.2% bovine serum albumin (BSA) and 0.1 mM phenylmethylsulfonylfluoride (PMSF) and kept frozen at -70° C. until used in subsequent binding experiments. For binding experiments, the following is added to the wells of a ninety-six well format microtiter plate: 100 μl of 100.0 mM Tris.HCl buffer containing 10.0 mM MgCl2, 0.2% heat inactivated BSA and a mixture of protease inhibitors: leupeptin, 1.0 mg %; aprotinin, 1.0 mg %; 1,10-phenanthroline,2.0 mg %; trypsin inhibitor, 10.0 mg % and 0.1 mM PMSF, 20.0 μl of [phenylalanyl-3,4,5,-^3 H] vasopressin (S.A. 45.1 Ci/mmole) at 0.8 nM, and the reaction initiated by the addition of 80 μl of tissue membranes containing 20 μg of tissue protein. The plates are kept undisturbed on the bench top at room temperature for 120 min. to reach equilibrium. Non-specific samples are assayed in the presence of 0.1 μM of the unlabeled antagonist phenylalanylvasopressin, added in 20.0 μl volume.
For test compounds, these are solubilized in 50% dimethylsulfoxide (DMSO) and added in 20.0 μl volume to a final incubation volume of 200 μl. Upon completion of binding, the content of each well is filtered off, using a Brandel® cell Harvester (Gaithersburg, Md.). The radioactivity trapped on the filter disk by the ligand-receptor complex is assessed by liquid scintillation counting in a Packard LS Counter, with an efficiency of 65% for tritium.

[2] = target: T1, rat kidney medullary V2 receptors (Rattus norvegicus, UniProt Q00788); assay: Binding Assay to Rat Kidney Medullary V2 Receptors; conditions: rat kidney medullary V2
T1 construct: Medullary tissues from rat kidneys are dissected out; from tissue; host or cells: rat kidney medulla membranes
T1 sequence (Q00788 whole entry): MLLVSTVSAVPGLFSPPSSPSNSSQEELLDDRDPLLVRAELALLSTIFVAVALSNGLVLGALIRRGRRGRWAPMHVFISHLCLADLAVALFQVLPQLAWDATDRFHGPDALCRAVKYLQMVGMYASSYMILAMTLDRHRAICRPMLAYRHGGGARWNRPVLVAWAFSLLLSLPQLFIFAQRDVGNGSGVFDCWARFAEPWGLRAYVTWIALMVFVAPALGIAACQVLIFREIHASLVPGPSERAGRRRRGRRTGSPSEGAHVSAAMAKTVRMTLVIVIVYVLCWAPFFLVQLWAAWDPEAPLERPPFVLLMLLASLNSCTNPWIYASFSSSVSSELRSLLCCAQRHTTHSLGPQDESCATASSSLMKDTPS
Description: Medullary tissues from rat kidneys are dissected out, cut into small pieces and soaked in a […] sodium chloride solution containing 1.0 mM EDTA with many changes of the liquid phase, until the solution is clear of blood. The tissue is homogenized in a 0.25M sucrose solution containing 1.0 mM EDTA and 0.1 mM PMSF using a Potter-Elvehjem homogenizer with a teflon pestle. The homogenate is filtered through several layers (4 layers) of cheese cloth. The filtrate is rehomogenized using a dounce homogenizer, with a tight fitting pestle. The final homogenate is centrifuged at 1500×g for 15 min. The nuclear pellet is discarded and the supernatant fluid recentrifuged at 40,000×g for 30 min. The resulting pellet formed contains a dark inner part with the exterior, slightly pink. The pink outer part is suspended in a small amount of 50.0 mM Tris.HCl buffer, pH 7.4. The protein content is determined by the Lowry's method (Lowry et al., J. Biol. Chem., 1953). The membrane suspension is stored at -70° C., in 50.0 mM Tris.HCl, containing 0.2% inactivated BSA and 0.1 mM PMSF in aliquots of 1.0 ml containing 10.0 mg protein per ml of suspension until use in subsequent binding experiments.
For binding experiments, the following is added in μl volume to wells of a 96 well format of a microtiter plate: 100.0 μl of 100.0 mM Tris.HCl buffer containing 0.2% heat inactivated BSA, 10.0 mM MgCl2 and a mixture of protease inhibitors: leupeptin, 1.0 mg %; aprotinin, 1.0 mg %; 1,10-phenanthroline, 2.0 mg %; trypsin inhibitor, 10.0 mg % and 0.1 mM PMSF, 20.0 μl of [^3 H] Arginine^8, vasopressin (S.A. 75.0 Ci/mmole) at 0.8 nM and the reaction initiated by the addition of 80.0 μl of tissue membranes (200.0 μg tissue protein). The plates are left undisturbed on the bench top for 120 min to reach equilibrium. Non-specific binding is assessed in the presence of 1.0 μM of unlabeled ligand, added in 20 μl volume. For test compounds, these are solubilized in 50% dimethylsulfoxide (DMSO) and added in 20.0 μl volume to a final incubation volume of 200 μl. Upon completion of binding, the content of each well is filtered off, using a Brandel® cell Harvester (Gaithersburg, Md.). The radioactivity trapped on the filter disk by the ligand-receptor complex is assessed by liquid scintillation counting in a Packard LS Counter, with an efficiency of 65% for tritium.

vasopressin V2 = assay: Vasopressin V2 Antagonist Activity in Conscious Hydrated Rats (diuretic effect); assay type: in vivo, normal Sprague-Dawley rats; conditions: 30 mg/kg orally, AVP 0.4 μg/kg i.p.
Description: Conscious hydrated rats are treated with compounds under study from 0.1 to 100 mg/kg orally or vehicle. Two to four rats are used for each compound. One hour later, arginine vasopressin (AVP, antidiuretic hormore, ADH) dissolved in peanut oil is administered at 0.4 μg/kg intraperitoneally. Two rats in each test would not receive arginine vasopressin but only the vehicle (peanut oil) to serve as water-loading control. Twenty minutes later each rat is given 30 mL/kg of deionized water orally by gavage and is placed individually in a metabolic cage equipped with a funnel and a graduated glass cylinder to collect urine for four hours. Urine volume is measured and osmolality analyzed by use of a Fiske One-Ten osmometer (Fiske Assoc., Norwood, Mass., USA). Urinary sodium, potassium, and chloride are analyzed by use of ion-specific electrodes in a Beckman E3 (Electrolyte 3) Analyzer. In the following results, […] and decreased osmolality relative to AVP-control indicates activity.

vasopressin V1 = assay: Vasopressin V1 Antagonist Activity in Conscious Rats (vasopressin vasopressor response); assay type: in vivo, rat (spontaneously hypertensive rats); parameters: Average Change: unit not given here; conditions: 10 mg/kg i.v.
Description: Conscious rats are restrained in a supine position with elastic tape. The area at the base of the tail is locally anesthetized by subcutaneous infiltration with 2% procaine (0.2 ml). Using aseptic technique the ventral caudal tail artery is isolated and a cannula made of PE 10 and 20 (heat-fused) tubing is passed into the lower abdominal aorta. The cannula is secured, heparinized (1000 i.u./cc), sealed and the wound closed with one or two stitches of Dexon 4-0. The caudal vein is also cannulated in the same manner for intravenous drug administration. The duration of the surgery is approximately 5 minutes. Additional local anesthesia (2% procaine or lidocaine) is provided as needed.
The animals are placed in plastic restraining cages in an upright position. The cannula is attached to a Statham P23Db pressure transducer and pulsatile blood pressure is recorded. […] The vasopressin injections are repeated 30, 60, 90, 120, 180, 240 and 300 min. later. Percentage of antagonism by the compound is calculated using the pre-drug vasopressin vasopressor response as 100%.

Chain of vasopressin V1 receptor (rat liver plasma membranes) (P30560 whole entry): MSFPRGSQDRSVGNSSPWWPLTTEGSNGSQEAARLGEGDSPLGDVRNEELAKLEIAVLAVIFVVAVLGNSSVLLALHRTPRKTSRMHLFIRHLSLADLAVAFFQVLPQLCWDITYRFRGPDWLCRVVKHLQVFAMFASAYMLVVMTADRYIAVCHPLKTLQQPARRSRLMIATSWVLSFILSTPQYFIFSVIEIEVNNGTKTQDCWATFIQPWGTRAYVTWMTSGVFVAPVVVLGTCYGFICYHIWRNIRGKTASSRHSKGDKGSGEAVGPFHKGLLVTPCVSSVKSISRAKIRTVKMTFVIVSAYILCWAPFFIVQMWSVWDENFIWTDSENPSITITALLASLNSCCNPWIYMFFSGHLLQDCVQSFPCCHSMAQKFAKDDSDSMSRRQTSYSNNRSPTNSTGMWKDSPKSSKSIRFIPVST

Row | IC50 [1] [nM] | IC50 [2] [nM] | SMILES | Osmolality (vasopressin V2) [mOsm/kg] | Urine Volume (vasopressin V2) [ml/4 hrs.] | Average Change (vasopressin V1; VAS 0.01 i.u./kg, 30 min) | Inhibition (vasopressin V1; VAS 0.01 i.u./kg, 30 min) [%] | Average Change (vasopressin V1; VAS 0.01 i.u./kg, 60 min) | Inhibition (vasopressin V1; VAS 0.01 i.u./kg, 60 min) [%] | Average Change (vasopressin V1; VAS 0.01 i.u./kg, 90 min) | Inhibition (vasopressin V1; VAS 0.01 i.u./kg, 90 min) [%] | Average Change (vasopressin V1; VAS 0.01 i.u./kg, 120 min) | Inhibition (vasopressin V1; VAS 0.01 i.u./kg, 120 min) [%] | Average Change (vasopressin V1; VAS 0.01 i.u./kg, 180 min) | Inhibition (vasopressin V1; VAS 0.01 i.u./kg, 180 min) [%] | Average Change (vasopressin V1; VAS 0.01 i.u./kg, 240 min) | Inhibition (vasopressin V1; VAS 0.01 i.u./kg, 240 min) [%] | Average Change (vasopressin V1; VAS 0.01 i.u./kg, 300 min) | Inhibition (vasopressin V1; VAS 0.01 i.u./kg, 300 min) [%] | Average Change (vasopressin V1; VAS 0.02 i.u./kg, 30 min) | Inhibition (vasopressin V1; VAS 0.02 i.u./kg, 30 min) [%] | also measured
1 | 57 | 66 | O=C(Nc1ccc(C(=O)N2Cc3ccccc3Cc3ccccc32)cc1)c1ccccc1Cl [Example 14, N-[4-[(6,11-Dihydro-5H-dibenz[b,e]azepin-5-yl)-carbonyl]phenyl]-2-chlorobenzamide] | 739 | 13.1 | 11 | 51 | 12 | 47 | 13.5 | 40 | 16 | 29 | 21.5 | 4 | 26.5 | -18 | 24.5 | -9 | 23 | 56 | Average Change (vasopressin V1; VAS 0.02 i.u./kg, 60 min): 22; Inhibition (vasopressin V1; VAS 0.02 i.u./kg, 60 min): 58%; Average Change (vasopressin V1; VAS 0.02 i.u./kg, 90 min): 29.5; Inhibition (vasopressin V1; VAS 0.02 i.u./kg, 90 min): 43%; Average Change (vasopressin V1; VAS 0.02 i.u./kg, 120 min): 23.5; Inhibition (vasopressin V1; VAS 0.02 i.u./kg, 120 min): 55%; Average Change (vasopressin V1; VAS 0.02 i.u./kg, 180 min): 30.5; Inhibition (vasopressin V1; VAS 0.02 i.u./kg, 180 min): 41%; Average Change (vasopressin V1; VAS 0.02 i.u./kg, 240 min): 32; Inhibition (vasopressin V1; VAS 0.02 i.u./kg, 240 min): 38%; Average Change (vasopressin V1; VAS 0.02 i.u./kg, 300 min): 33; Inhibition (vasopressin V1; VAS 0.02 i.u./kg, 300 min): 37%
2 | 76 | 64 | O=C(Nc1ccc(C(=O)N2Cc3ccccc3Cc3cc(Cl)ccc32)cc1)c1ccc(Cl)cc1Cl [Example 137, N-[4-[(2-Chloro-6,11-dihydro-5H-dibenz[b,e]azepin-5-yl)carbonyl]phenyl]2,4-dichlorobenzamide] | 358 | 15.8 |  |  |  |  |  |  |  |  |  |  |  |  |  |  |  |  | MAX % Inhibition (vasopressin V1): 52%; Time of max % inhibition (vasopressin V1): 30 min
3 | 320 | 140 | Cc1ccccc1C(=O)Nc1ccc(C(=O)N2Cc3ccccc3C(C)c3ccccc32)cc1 (stereo not shown) [Example 22] | 738 | 10.2 | 8.5 | 60 | 11 | 49 | 14 | 35 | 17.5 | 19 | 20 | 7 | 28 | -30 | 30 | -40 | 18.5 | 56 | Average Change (vasopressin V1; VAS 0.02 i.u./kg, 60 min): 25; Inhibition (vasopressin V1; VAS 0.02 i.u./kg, 60 min): 40%; Average Change (vasopressin V1; VAS 0.02 i.u./kg, 90 min): 13; Inhibition (vasopressin V1; VAS 0.02 i.u./kg, 90 min): 69%; Average Change (vasopressin V1; VAS 0.02 i.u./kg, 120 min): 30; Inhibition (vasopressin V1; VAS 0.02 i.u./kg, 120 min): 29%; Average Change (vasopressin V1; VAS 0.02 i.u./kg, 180 min): 36; Inhibition (vasopressin V1; VAS 0.02 i.u./kg, 180 min): 14%; Average Change (vasopressin V1; VAS 0.02 i.u./kg, 240 min): 48; Inhibition (vasopressin V1; VAS 0.02 i.u./kg, 240 min): -14%; Average Change (vasopressin V1; VAS 0.02 i.u./kg, 300 min): 52.5; Inhibition (vasopressin V1; VAS 0.02 i.u./kg, 300 min): -25%
